Results as given in publication PMC7953584, “An Experimental Study on [^125I]I-pHLIP (Var7) for SPECT/CT Imaging of an MDA-MB-231 Triple-Negative Breast Cancer Mouse Model by Targeting the Tumor Microenvironment” (Molecular Imaging, 2021).
Where two headings read alike, the source gives them in different places. Residues, ends and D or L forms follow the SMILES beside them.

Experiments:
[1] = Biodistribution in tumor-bearing nude mice; type: in vivo; conditions: female, BALB/c nude, mouse, iv, 1480 kBq/200 uL, total radioactivity, ~1480 kBq/200 μL tail vein, mean ± SD, n = 3; for tissue uptake at 0.5 h: 0.5 h after injection; for tissue uptake at 1 h: 1 h after injection; for tissue uptake at 2 h: 2 h after injection; for tissue uptake at 4 h: 4 h after injection; for tissue uptake at 8 h: 8 h after injection
Experimental: A mouse model bearing a human breast cancer cell line, MDA-MB-231, was established. MDA-MB-231 cells were cultured using the conventional method. Cells were collected at the logarithmic growth phase and washed once with PBS. The cells were then diluted to prepare suspensions at a concentration of approximately 1 × 10^6 cells/mL, which were temporarily stored in an ice box. Female 4-week-old BALB/c nude mice (16-20 g) were selected. MDA-MB-231 cells were inoculated subcutaneously using a disposable insulin syringe inserted into the right lateral thighs of the nude mice. The number of inoculated cells in each nude mouse was approximately 0.1 mL. The nude mice were raised under specific pathogen-free (SPF) conditions.
Biodistribution experiments were conducted when the tumor diameter was 0.8-1.0 cm. Purified [^125I]I-pHLIP (Var7) was diluted with PBS, and a total of 15 tumor-bearing nude mice with no significant differences in tumor size were randomly divided into five cohorts. Nude mice in each cohort were injected with [^125I]I-pHLIP (Var7) at approximately 1480 kBq/200 μL through the tail vein. At 0.5, 1, 2, 4, and 8 h after injection, blood was collected from the orbital sinus. The mice were sacrificed, and tissues and organs, including the heart, liver, spleen, lung, kidney, pancreas, stomach, small intestine, bladder, thyroid, brain, bone, muscle, and tumors, were collected and weighed. The radioactive count was measured, and the results were converted to %ID/g.

MDA-MB-231 cells = assay: Cell binding fraction (cellular uptake test); type: cell-based, human; conditions: for binding fraction B/(B + F) × 100%: 3.7 kBq per well, γ counter, mean ± SD
Experimental: The human breast cancer cell line MDA-MB-231 was purchased from Shanghai Institute of Biochemistry and Cell Biology, Chinese Academy of Sciences and cultured in L-15 medium containing 10% fetal bovine serum at 37°C without CO2.
• Cell Plating. After the MDA-MB-231 cells were grown to greater than 90% confluence, the cell concentration was adjusted to approximately 1.0 × 10^5 cells/mL, 1 mL of the cell suspension was added to each well of a 12-well plate, and cells were cultured overnight at 37°C in a cell incubator. • Drug Administration. At the logarithmic growth phase, the cells were treated with drugs on the day after attachment; 3.7 kBq of [^125I]I-pHLIP (Var7) (20 μL volume) was added to each well. The pH inside the wells was adjusted to 7.4 and 6.0, yielding two groups of cells according to the pH value. • After 10 min, 40 min, 1 h, and 2 h of culture without CO2, the supernatant was aspirated into a tube and washed with PBS of the corresponding pH (pH 7.4 and 6.0) twice. The wash solution was also added to the supernatant tube. The cells were completely digested with trypsin, after which the cell suspension was aspirated into a tube and washed twice with PBS; the wash solution was also added to the tube. The radioactive counts of the cell tube (B) and supernatant tube (F) were measured by a γ counter. The cell binding fraction of the marker was calculated as B/(B + F) × 100%

[2] = bladder, read-out: distribution in bladder
[3] = blood, read-out: distribution in blood
[4] = bone, read-out: distribution in bone
[5] = brain, read-out: distribution in brain
[6] = heart, read-out: distribution in heart
[7] = kidney, read-out: distribution in kidney
[8] = liver, read-out: distribution in liver
[9] = lung, read-out: distribution in lung
[10] = muscle, read-out: distribution in muscle
[11] = pancreas, read-out: distribution in pancreas
[12] = small intestine, read-out: distribution in small intestine
[13] = spleen, read-out: distribution in spleen
[14] = stomach, read-out: distribution in stomach
[15] = thyroid, read-out: distribution in thyroid
[16] = tumor (MDA-MB-231), MDA-MB-231 tumor, read-out: distribution in tumor

SMILES: CC(C)C[C@H](NC(=O)[C@H](CCC(=O)O)NC(=O)[C@H](CC(C)C)NC(=O)[C@H](CC(C)C)NC(=O)[C@H](CC(C)C)NC(=O)[C@@H](NC(=O)[C@H](CCC(=O)O)NC(=O)[C@@H](NC(=O)[C@@H]1CCCN1C(=O)[C@H](Cc1ccccc1)NC(=O)[C@H](CC(C)C)NC(=O)[C@H](Cc1c[nH]c2ccccc12)NC(=O)[C@H](CCC(=O)O)NC(=O)[C@H](CC(C)C)NC(=O)[C@H](Cc1ccc(O)c(I)c1)NC(=O)[C@H](CCCNC(=N)N)NC(=O)[C@H](C)NC(=O)[C@H](Cc1c[nH]c2ccccc12)NC(=O)[C@@H]1CCCN1C(=O)[C@H](CC(N)=O)NC(=O)[C@H](CCC(N)=O)NC(=O)[C@H](CCC(=O)O)NC(=O)[C@H](CCC(=O)O)NC(=O)[C@H](C)N)[C@@H](C)O)[C@@H](C)O)C(N)=O [[^125I]I-pHLIP (Var7)] (HELM PEPTIDE1{A.E.E.Q.N.P.W.A.R.[O=C([C@H](Cc1ccc(O)c(I)c1)N[*:1])[*:2]].L.E.W.L.F.P.T.E.T.L.L.L.E.L.[am]}$$$$V2.0)
- tissue uptake at 0.5 h [1, 2]: 3.8 ± 1.1 %ID/g
- tissue uptake at 1 h [1, 2]: 4.3 ± 1.1 %ID/g
- tissue uptake at 2 h [1, 2]: 2.1 ± 0.9 %ID/g
- tissue uptake at 4 h [1, 2]: 1 ± 0.6 %ID/g
- tissue uptake at 8 h [1, 2]: 0.5 ± 0.2 %ID/g
- tissue uptake at 0.5 h [1, 3]: 12 ± 1.5 %ID/g
- tissue uptake at 1 h [1, 3]: 6.5 ± 1.5 %ID/g
- tissue uptake at 2 h [1, 3]: 2.8 ± 0.6 %ID/g
- tissue uptake at 4 h [1, 3]: 1.2 ± 0.5 %ID/g
- tissue uptake at 8 h [1, 3]: 0.5 ± 0.1 %ID/g
- tissue uptake at 0.5 h [1, 4]: 2.9 ± 0.3 %ID/g
- tissue uptake at 1 h [1, 4]: 2.8 ± 0.1 %ID/g
- tissue uptake at 2 h [1, 4]: 1.5 ± 0.5 %ID/g
- tissue uptake at 4 h [1, 4]: 0.7 ± 0.2 %ID/g
- tissue uptake at 8 h [1, 4]: 0.2 ± 0.1 %ID/g
- tissue uptake at 0.5 h [1, 5]: 0.6 ± 0.1 %ID/g
- tissue uptake at 1 h [1, 5]: 0.5 ± 0.1 %ID/g
- tissue uptake at 2 h [1, 5]: 0.3 ± 0.1 %ID/g
- tissue uptake at 4 h [1, 5]: 0.1 ± 0.1 %ID/g
- tissue uptake at 8 h [1, 5]: 0.1 ± 0.1 %ID/g
- tissue uptake at 0.5 h [1, 6]: 4.1 ± 0.5 %ID/g
- tissue uptake at 1 h [1, 6]: 3.9 ± 0.7 %ID/g
- tissue uptake at 2 h [1, 6]: 2 ± 0.4 %ID/g
- tissue uptake at 4 h [1, 6]: 1.1 ± 1.1 %ID/g
- tissue uptake at 8 h [1, 6]: 0.5 ± 0.3 %ID/g
- tissue uptake at 0.5 h [1, 7]: 4.2 ± 0.6 %ID/g
- tissue uptake at 1 h [1, 7]: 5.1 ± 1.1 %ID/g
- tissue uptake at 2 h [1, 7]: 2.3 ± 0.8 %ID/g
- tissue uptake at 4 h [1, 7]: 1.2 ± 0.4 %ID/g
- tissue uptake at 8 h [1, 7]: 0.5 ± 0.2 %ID/g
- tissue uptake at 0.5 h [1, 8]: 13.9 ± 2.7 %ID/g
- tissue uptake at 1 h [1, 8]: 8 ± 1.9 %ID/g
- tissue uptake at 2 h [1, 8]: 4 ± 0.6 %ID/g
- tissue uptake at 4 h [1, 8]: 1.8 ± 0.2 %ID/g
- tissue uptake at 8 h [1, 8]: 0.7 ± 0.2 %ID/g
- tissue uptake at 0.5 h [1, 9]: 3.4 ± 1.2 %ID/g
- tissue uptake at 1 h [1, 9]: 2.5 ± 1 %ID/g
- tissue uptake at 2 h [1, 9]: 1.2 ± 0.5 %ID/g
- tissue uptake at 4 h [1, 9]: 0.5 ± 0.3 %ID/g
- tissue uptake at 8 h [1, 9]: 0.2 ± 0.1 %ID/g
- tissue uptake at 0.5 h [1, 10]: 1.7 ± 0.6 %ID/g
- tissue uptake at 1 h [1, 10]: 1.4 ± 0.8 %ID/g
- tissue uptake at 2 h [1, 10]: 0.6 ± 0.2 %ID/g
- tissue uptake at 4 h [1, 10]: 0.2 ± 0.1 %ID/g
- tissue uptake at 8 h [1, 10]: 0.1 ± 0.1 %ID/g
- tissue uptake at 0.5 h [1, 11]: 3.3 ± 0.8 %ID/g
- tissue uptake at 1 h [1, 11]: 4.1 ± 1.2 %ID/g
- tissue uptake at 2 h [1, 11]: 2.1 ± 0.6 %ID/g
- tissue uptake at 4 h [1, 11]: 0.9 ± 0.3 %ID/g
- tissue uptake at 8 h [1, 11]: 0.3 ± 0.1 %ID/g
- tissue uptake at 0.5 h [1, 12]: 3.3 ± 1.5 %ID/g
- tissue uptake at 1 h [1, 12]: 4.2 ± 0.6 %ID/g
- tissue uptake at 2 h [1, 12]: 2.8 ± 1 %ID/g
- tissue uptake at 4 h [1, 12]: 1.3 ± 0.5 %ID/g
- tissue uptake at 8 h [1, 12]: 0.4 ± 0.1 %ID/g
- tissue uptake at 0.5 h [1, 13]: 3 ± 1.1 %ID/g
- tissue uptake at 1 h [1, 13]: 3 ± 0.6 %ID/g
- tissue uptake at 2 h [1, 13]: 1.4 ± 0.4 %ID/g
- tissue uptake at 4 h [1, 13]: 0.7 ± 0.2 %ID/g
- tissue uptake at 8 h [1, 13]: 0.3 ± 0.1 %ID/g
- tissue uptake at 0.5 h [1, 14]: 4.7 ± 1.2 %ID/g
- tissue uptake at 1 h [1, 14]: 5.1 ± 1.2 %ID/g
- tissue uptake at 2 h [1, 14]: 4.3 ± 1 %ID/g
- tissue uptake at 4 h [1, 14]: 2.2 ± 0.8 %ID/g
- tissue uptake at 8 h [1, 14]: 0.7 ± 0.2 %ID/g
- tissue uptake at 0.5 h [1, 15]: 4.3 ± 1.7 %ID/g
- tissue uptake at 1 h [1, 15]: 5.6 ± 1.4 %ID/g
- tissue uptake at 2 h [1, 15]: 3.4 ± 1 %ID/g
- tissue uptake at 4 h [1, 15]: 1.6 ± 0.8 %ID/g
- tissue uptake at 8 h [1, 15]: 0.8 ± 0.4 %ID/g
- tissue uptake at 0.5 h [1, 16]: 3.6 ± 0.5 %ID/g
- tissue uptake at 1 h [1, 16]: 6.9 ± 0.4 %ID/g
- tissue uptake at 2 h [1, 16]: 3.6 ± 0.7 %ID/g
- tissue uptake at 4 h [1, 16]: 2 ± 0.6 %ID/g
- tissue uptake at 8 h [1, 16]: 1 ± 0.4 %ID/g
- binding fraction B/(B + F) × 100% (MDA-MB-231 cells; pH 6.0, 10 min): 1.9 ± 0.1%
- binding fraction B/(B + F) × 100% (MDA-MB-231 cells; pH 6.0, 40 min): 3.5 ± 0.1%
- binding to MDA-MB-231 cells (in words) (MDA-MB-231 cells; pH 7.4): essentially did not bind
- binding fraction B/(B + F) × 100% (MDA-MB-231 cells; pH 7.4, 10 min): 0.9 ± 0.1%
- binding fraction B/(B + F) × 100% (MDA-MB-231 cells; pH 7.4, 40 min): 0.8 ± 0.1%
- binding fraction B/(B + F) × 100% (MDA-MB-231 cells; pH 7.4, 1 h): 0.8 ± 0.1%
- binding fraction B/(B + F) × 100% (MDA-MB-231 cells; pH 7.4, 2 h): 0.6 ± 0.1%
